Data from publication PMC11405833, “Targeted sulfur(VI) fluoride exchange-mediated covalent modification of a tyrosine residue in the catalytic pocket of tyrosyl-DNA phosphodiesterase 1” (Communications Chemistry, 2024).
Like-named read-outs stand apart in the source and are kept apart here. One block for each molecule: values may come before it.

Experiments:
[1] = molecular target: T1, recombinant full-length TDP1 (Homo sapiens, UniProt Q9NUW8); experiment: gel-based TDP1 fluorescence assay in vitro (wild-type TDP1)
T1 sequence (Q9NUW8 whole entry): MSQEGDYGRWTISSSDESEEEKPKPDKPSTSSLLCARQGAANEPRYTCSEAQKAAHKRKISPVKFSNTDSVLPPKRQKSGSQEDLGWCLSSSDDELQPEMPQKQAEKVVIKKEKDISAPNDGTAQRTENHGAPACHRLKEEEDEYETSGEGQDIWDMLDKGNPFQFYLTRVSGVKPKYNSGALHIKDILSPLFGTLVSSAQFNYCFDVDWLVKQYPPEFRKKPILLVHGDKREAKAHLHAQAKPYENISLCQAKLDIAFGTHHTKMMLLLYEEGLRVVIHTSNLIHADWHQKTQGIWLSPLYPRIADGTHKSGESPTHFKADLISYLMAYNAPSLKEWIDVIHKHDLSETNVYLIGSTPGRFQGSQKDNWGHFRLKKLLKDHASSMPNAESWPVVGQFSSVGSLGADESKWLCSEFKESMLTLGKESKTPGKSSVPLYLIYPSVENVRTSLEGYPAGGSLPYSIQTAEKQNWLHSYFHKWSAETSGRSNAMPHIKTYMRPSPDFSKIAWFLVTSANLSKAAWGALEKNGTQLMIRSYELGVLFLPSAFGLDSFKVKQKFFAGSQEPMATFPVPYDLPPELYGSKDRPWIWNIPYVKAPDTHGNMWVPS
Procedure: The inhibition of TDP1 or TDP1^Y204F was also conducted using a gel-based assay as previously described[13],[14]. Briefly, the DNA substrate (1 nM, 5′Cy5-[sequence]-pY-3′, Cy5-N14Y) was incubated for 15 min. with recombinant full-length TDP1 or TDP1^Y204F (40 pM) in the absence or presence of inhibitors for 5 min. or 3 hr preincubation time as shown in Table 1 at room temperature (22 °C) in TDP1 reaction buffer (50 mM Tris HCl, pH 7.5, 80 mM KCl, 2 mM EDTA, 1 mM DTT, 40 µg/mL BSA and 0.01% Tween-20). […] Samples were then subjected to a 20% denaturing PAGE gel following by gel scanning using a Typhoon FLA 9500 scanner (GE Healthcare). The IC50 values of TDP1 inhibitors were calculated by comparing the percentage of cleavage product (5′Cy5-[sequence]-p-3′, Cy5-N14P) to DMSO control.

TDP1^Y204F = molecular target: T2, TDP1^Y204F (Homo sapiens, UniProt Q9NUW8, Y204F); experiment: gel-based TDP1 fluorescence assay in vitro (mutant TDP1 Y204F); assay type: biochemical
T2 construct: was incubated for 15 min. with recombinant full-length TDP1 or TDP1^Y204F (40 pM)
T2 sequence (Q9NUW8 whole entry Y204F): as the sequence (Q9NUW8 whole entry) above, with Y204F counted along it
Procedure: The inhibition of TDP1 or TDP1^Y204F was also conducted using a gel-based assay as previously described[13],[14]. Briefly, the DNA substrate (1 nM, 5′Cy5-[…]-pY-3′, Cy5-N14Y) was incubated for 15 min. with recombinant full-length TDP1 or TDP1^Y204F (40 pM) in the absence or presence of inhibitors for 5 min. or 3 hr preincubation time as shown in Table 1 at room temperature (22 °C) in TDP1 reaction buffer (50 mM Tris HCl, pH 7.5, 80 mM KCl, 2 mM EDTA, 1 mM DTT, 40 µg/mL BSA and 0.01% Tween-20). […] Samples were then subjected to a 20% denaturing PAGE gel following by gel scanning using a Typhoon FLA 9500 scanner (GE Healthcare). The IC50 values of TDP1 inhibitors were calculated by comparing the percentage of cleavage product (5′Cy5-[…]-p-3′, Cy5-N14P) to DMSO control.

TDP1(148-608) = molecular target: T3, TDP1(148-608) (Homo sapiens, UniProt Q9NUW8); experiment: intact mass LC-MS analysis of covalent modification; assay type: binding; details: 50 μM compound, overnight 25 °C, 1:65 enzyme/compound
T3 construct: The recombinant TDP1(148-608) (2 μg) in 50 μL of buffer
T3 sequence (Q9NUW8 148-608): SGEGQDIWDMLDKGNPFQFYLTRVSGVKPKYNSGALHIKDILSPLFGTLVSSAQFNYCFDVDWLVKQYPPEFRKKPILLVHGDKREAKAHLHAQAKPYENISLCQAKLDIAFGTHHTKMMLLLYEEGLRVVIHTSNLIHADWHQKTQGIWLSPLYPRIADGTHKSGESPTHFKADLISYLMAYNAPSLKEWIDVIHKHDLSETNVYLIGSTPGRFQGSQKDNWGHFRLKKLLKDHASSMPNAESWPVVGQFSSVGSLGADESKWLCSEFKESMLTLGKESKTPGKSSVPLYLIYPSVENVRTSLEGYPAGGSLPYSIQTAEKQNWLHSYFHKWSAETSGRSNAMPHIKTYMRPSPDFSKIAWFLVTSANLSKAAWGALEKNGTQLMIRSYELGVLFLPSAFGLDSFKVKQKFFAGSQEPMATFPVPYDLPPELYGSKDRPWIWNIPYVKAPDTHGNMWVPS
Procedure: The samples were incubated overnight at 25 °C with shaking at 500 rpm. The samples were diluted with water to 100 μL and analyzed by liquid chromatography coupled online with mass spectrometry (LC-MS)[67]. Separation was performed on a Vanquish Flex chromatographic system (Thermo) using a MabPac reversed-phase column (4 μm, 1500 Å, 3 ×50 mm, Thermo) maintained at 50 °C. The labeled proteins were resolved at 0.5 mL/min over a 15 min gradient of buffer B (47.5% acetonitrile, 47.5% isopropanol, 5% water, 0.2% formic acid (FA)) from 2 to 100% followed by re-equilibration at 2% buffer B (total run time 20 min) against buffer A (5% acetonitrile, 0.2% FA in water). The eluates from the column were introduced to an Exactive Plus EMR mass spectrometer (Thermo) through a heated electrospray ionization (HESI) source. Intact mass spectra were acquired over 500-2000 m/z window at 35,000 FT resolution (at 200 m/z), averaging 10 microscans, with an AGC target of 3 ×10^6, max injection time of 200 ms, 80% S-lens RF level, 20 V source-induced dissociation, and capillary temperature set at 275 °C. The resulting spectra were manually averaged followed by deconvolution using the ReSpect algorithm in BioPharma Finder 2.0 (Thermo). […]

[2] = molecular target: T1, recombinant full-length TDP1; parameters: was incubated for 15 min. with recombinant full-length TDP1 or TDP1^Y204F (40 pM); method as in PMID 31199869; details: reported data; cited from earlier work
[3] = TDP1 IC50, pre-incubation time 5 min with wild-type (WT) TDP1

SMILES: O=C(NCCc1ccccc1)c1ccc(-c2cccc3c(=O)c(C(=O)O)c[nH]c23)c(OS(=O)(=O)F)c1 [Compound 3g, 8-(2-((fluorosulfonyl)oxy)-4-(phenethylcarbamoyl)phenyl)-4-oxo-1,4-dihydroquinoline-3-carboxylic acid]
fold increase in inhibitory potency relative to parent compound 3c [1]: 5 to 10 fold
fold increase in inhibitory potency compared with quinolone 1a ([1]; 5 min pre-incubation, WT TDP1, vs 1a IC50 7.2 mM): 18 fold
fold increase in TDP1 inhibitory potency compared to quinolone 3a ([1]; 5 min pre-incubation, WT TDP1, vs 3a IC50 5.17 mM): 13 fold
IC50 [1, 3]: 0.41 ± 0.07 mM
IC50 ([1]; TDP1 IC50, pre-incubation time 3 h with WT TDP1): 0.27 ± 0.03 mM
fold enhancement of IC50 by extending pre-incubation time from 5 min to 3 h ([1]; WT TDP1): 1.5 fold
IC50 (TDP1^Y204F): 4.69 ± 1.26 mM
fold reduced inhibitory potency with mutant TDP1^Y204F vs WT (TDP1^Y204F; 5 min pre-incubation): 11 fold
mass shift of single covalent modification of TDP1(148-608) (loss of fluorine) (TDP1(148-608)): +490.83 Da

SMILES: O=C(O)c1c[nH]c2c(-c3cccc(OS(=O)(=O)F)c3)cccc2c1=O [Compound 3d]
IC50 [1, 3]: 0.69 ± 0.04 mM

SMILES: O=C(O)c1c[nH]c2c(-c3ccccc3)cccc2c1=O [Compound 3a]
IC50 [1]: 5.17 ± 0.14 mM

SMILES: O=C(O)c1cnc2ccccc2c1O [Compound 1a]
IC50 [2]: 7.2 mM

The remaining lines, values ahead:

IC50 [1]: > 9 mM
SMILES: O=C(O)c1c[nH]c2c(S(=O)(=O)Nc3ccccc3)cccc2c1=O [Compound 2b]

IC50 [1]: > 9 mM
SMILES: O=C(O)c1c[nH]c2c(S(=O)(=O)NCCc3ccccc3)cccc2c1=O [Compound 2c]

IC50 ([1]; read-out: TDP1 IC50, WT TDP1, dash = no activity up to highest tested concentration): > 9 mM
SMILES: O=C(O)c1c[nH]c2c(S(=O)(=O)NCCCc3ccccc3)cccc2c1=O [Compound 2d]

IC50 [1]: 4.61 ± 0.35 mM
SMILES: O=C(O)c1c[nH]c2c(S(=O)(=O)O)cccc2c1=O [Compound 2a]
